According to patent US20030159953A1, “Carbohydrate medical solution and sulphite stabilisator in a multiple compartment container and use thereof” (priority 2003, published 2003):

How the values were obtained:
[1] = test system: mouse fibroblasts cells L-929; test: In vitro assay for cytotoxicity (inhibition of cell growth, ICG); format: cell-based
Description: Medical solutions used for peritoneal dialysis were mixed with one part cell growth medium and 10% (volume/volume) fetal calf serum was added (Wieslander et al., 1991, Kidney Int. 40:77-79). Basal cytotoxicity of medical solution used for peritoneal dialysis were determined on mouse fibroblasts cells L-929 (CCL-1; ATTC, Rockville, Md., USA) as described earlier (Wieslander et al. 1993, Advances in Peritoneal Dialys, 9:31-35) and expressed as inhibition of cellgrowth (ICG).

[2] = Determination of acetaldehyde and formaldehyde (HPLC, 2,4-DNPH derivatives); format: physicochemical; settings: Example 5: 1.5% glucose solution, sodium bisulphite 0, 0.5, 1 mM added before or after heat sterilisation 121° C. 1 hour
Description: Determination of acetaldehyde and formaldehyde: The samples for the determination of acetaldehyde were diluted 20 times to a final volume of 4 ml, prior to analysis. Acetaldehyde was prepared as hydrazone derivatives using 2,4-DNPH as derivative reagent. The standards were prepared in range 1.1-11.4 μM acetaldehyde, and 1.7-16.7 μM formaldehyde. Standards and samples were prepared by adding 2 ml 0.08% (weight/volume) 2,4-DNPH to 4 ml of each sample. The sample were concentrated on a solid phase extraction C18 column (Bond Elut LRC 200 mg/3 ml) and after rinsing with water, eluted with 1.6 ml acetonitrile. The analytical column was a Supelco C18 column (5 μm, 15 cm×4,6 mm). The elution of the substances was performed at constant flow of 1.7 ml/min by using a linear gradient of acetonitrile/water. The percentage acetonitrile/water (volume/volume) was initially 35/65 and at the gradient stop 12 minutes later 80/20. The wavelenght was set at 240 nm and the injected volume was 20 μl. The limit of quantification was for acetaldehyde. 1.1 μM. And for formaldehyde 1.7 μM.

## O=S([O-])O.[Na+] [sodium bisulphite]
[1]; Example 3: bisulphite in glucose compartment, 0-0.5 mM in final solution, 4% glucose, sterilised 121° C. 1 hour, mixed post sterilisation
  inhibition of cell growth (ICG): decrease of the ICG value
[1]; Example 4: sulphite in electrolyte compartment, concentrations in final solution as in example 3, 4% glucose, sterilised 121° C. 1 hour
  inhibition of cell growth (ICG): decrease of the ICG value
[1]; Example 5: 1.5% glucose solution, sodium bisulphite 0, 0.5, 1 mM added before or after heat sterilisation 121° C. 1 hour
  inhibition of cell growth (ICG): decrease of the ICG value
[2]
  level of acetaldehyde in sterilised solution: decreased levels
  level of formaldehyde in sterilised solution: decreased levels
